Source: US12528774B2, “Thiosemicarbazone compounds and uses thereof” (The Regents of the University of California, priority 2019, dated 2026)

Experiments:
[1] = system: MIAPACA-2 cells; test: Nucleotide pool measurement by LC-MS/MS-MRM; format: cell-based, human; settings: 25 nM HCT-13 + Cu(II), 48 hours
Experimental: FIGS. 4A-4G show the chemical genomics screen identifying the replication stress response pathway as an actionable co-dependency of HCT13-treated cells. FIG. 4A: experimental design of a synthetic lethality screen using a library of protein kinase inhibitors against HCT13-treated cells in the presence of Cu(II) (20 μM). FIG. 4B: radar plot of screen results. FIG. 4C: z-score values for kinase inhibitors within the DNA damage response/replication stress response (DDR/RSR) pathway module. FIG. 4D: representative immunoblot of replication stress and cell death biomarkers in MIAPACA2 PDAC cells treated with HCT13 (10 nM)+Cu(II) (20 μM). […]
These observations are indicative of DDR/RSR pathway activation, which was hypothesized to arise from nucleotide insufficiency and/or, given the ability of copper to generate ROS, from ROS-mediated DNA damage. […] To test the former hypothesis, nucleotide levels were measured in treated and non-treated cells using liquid chromatography-tandem mass spectrometry with multiple reaction monitoring (LC-MS/MS-MRM) as previously described by Le et al, Nature Communications 2017, 8(1):1-14. […] These findings indicate that HCT-13 preferentially decreases the dGTP and rGTP pools, potentially via oxidative processes as guanine is the most readily oxidized nucleobase. […]

[2] = system: panel of PDAC, SCLC, and PC cancer models; test: Proliferation assay (CellTiter-Glo) in panel of PDAC, SCLC and PC cancer models; format: cell-based, human and mouse; settings: media with 20 μM CuCl2, 72 h
Excerpt: FIG. 1A: IC50 values in a panel of human and mouse prostate cancer (PC)(cell lines CF-2, LNCaP, 22Rv1, RM-1, MyC CaP); small cell lung carcinoma (SCLC)(cell lines NCI-H1963, NCI-H146, NCI-H526); pancreatic ductal adenocarcinoma (PDAC)(CFPAC1, SW1990, HS766T, PANC0203, PANC0813, ASPC1, HPAFII, PATU8902, PANC0327, PANC1, YAPC, L36PL, XWR200, HUPT4, A13A, SUIT2, DAN-G, BxPC3, HPAC, PSN1, SU8686, KP4662, MIAPACA2, PATU8988T); and leukemia (cell lines KG-1, TF-1, Jurkat, MOLT-4, p185-R, MV4-11) models treated with HCT13+Cu(II) (20 μM) for 72 h measured by CellTiterGlo. […] (mean±SD, n=2, one-way ANOVA corrected for multiple comparisons by Bonferroni adjustment, * P<0.05; **P<0.01; ***P<0.001).
Serum copper levels are elevated (>20 μM) in individuals with solid tumor types such as pancreatic ductal adenocarcinoma (PDAC), small cell lung carcinoma (SCLC), and prostate cancer (PC). (Refs. 43-48). These cancers rely upon elevated copper levels to sustain growth, making this transition metal a viable target for therapeutic modulation. (Ref 34). […]
Proliferation assay: Cells were plated in 384-well plates (500 cells/well for adherent cell lines in 30 μl volume). […] Following 72 h incubation, ATP content was measured using CellTiter-Glo reagent according to manufacturer's instructions (Promega, CellTiter-Glo Luminescent Cell Viability Assay), and analyzed by SpectraMax luminometer (Molecular Devices). […]

[3] = system: PDAC (MIAPACA2, CFPAC-1) and PC (C4-2) cell lines; test: Cell death assays (Annexin V/PI, trypan blue) of HCT13 with ATR inhibition; format: cell-based; settings: ATRi 250 nM VE-822, Cu(II) 20 μM, 72 h
Experimental: FIGS. 4A-4G show the chemical genomics screen identifying the replication stress response pathway as an actionable co-dependency of HCT13-treated cells. FIG. 4A: experimental design of a synthetic lethality screen using a library of protein kinase inhibitors against HCT13-treated cells in the presence of Cu(II) (20 μM). FIG. 4B: radar plot of screen results. FIG. 4C: z-score values for kinase inhibitors within the DNA damage response/replication stress response (DDR/RSR) pathway module. FIG. 4D: representative immunoblot of replication stress and cell death biomarkers in MIAPACA2 PDAC cells treated with HCT13 (10 nM)+Cu(II) (20 μM). […] (mean±SD, n=2, one-way ANOVA corrected for multiple comparisons by Bonferroni adjustment, * P<0.05; ** P<0.01; *** P<0.001; **** P<0.0001).
FIGS. 6A-6C provide the identification of resistance mechanisms to HCT13 using a synthetic lethality screen. […] (mean±SD, n=2, one-way ANOVA corrected for multiple comparisons by Bonferroni adjustment, * P<0.05; ** P<0.01; *** P<0.001; **** P<0.0001). […]
Viability/Apoptosis assay: Viable cells were measured by Trypan blue staining using vi-cell counter (Beckman Coulter, CA, USA). […]

Question: For CN(C)C(=S)N/N=C/c1nccc2cc(F)ccc12 (mixture of isomers) [HCT13, (E)-2-((6-Fluoroisoquinolin-1-yl)methylene)-N,N-dimethylhydrazine-1-carbothioamide and (Z)-2-((6-Fluoroisoquinolin-1-yl)methylene)-N,N-dimethylhydrazine-1-carbothioamide], which “dGTP and rGTP pools” value [1] is on record?
Answer: decreased

Question: And the “+Cu IC90 range across panel” value [2]?
Answer: nanomolar

Question: What about the IC90 ([2]; read-out: +Cu IC90 range across panel) of the same molecule?
Answer: 1 to 200 nM

Question: What about the “interaction with ATR inhibition (cell death)” value [3] of the same molecule?
Answer: synergistic interaction
